Data reported in patent US20250296959A1, “B7-H3 TARGETING PEPTIDES AND CONSTRUCTS THEREOF” (Mariana Oncology Inc., priority 2024, published 2025).
Like-named read-outs stand apart in the source and are kept apart here. Starred links: 1 amine or outer side, 2 acyl side, 3 side chain; linkers in the order of their positions; H or OH if unused. Positions of bridges follow the written chain, without caps; N, C: chain ends. Non-standard residues stand in square brackets, D forms with d. Residues, ends and D or L forms follow the SMILES beside them. Groups on a side chain read outwards from the residue. *: point of attachment. Ala(piperidin-4-yl) = O=C([C@H](CC1CCN([*:3])CC1)N[*:1])[*:2]; DOTA = O=C(O)CN1CCN(CC(=O)O)CCN(CC(=O)*)CCN(CC(=O)O)CC1; Trp(5-F) = N[C@@H](Cc1c[nH]c2ccc(F)cc12)C(=O)O; X1 = C[C@@H](c1ccccc1)[C@H](N[*:1])C(=O)[*:2]; γGlu = O=C(O)[C@H](CCC(=O)[*:2])N[*:1]; 1Nal = N[C@@H](Cc1cccc2ccccc12)C(=O)O; Ala(4-THP) = N[C@@H](CC1CCOCC1)C(=O)O; Val(3-OH) = CC(C)(O)[C@H](N)C(=O)O; 4Pal = N[C@@H](Cc1ccncc1)C(=O)O; Chg = N[C@H](C(=O)O)C1CCCCC1; PEG4 = NCCOCCOCCOCCOCCC(=O)O; Tle = CC(C)(C)[C@H](N)C(=O)O; hLeu = CC(C)CC[C@H](N)C(=O)O; Ms = CS(=O)(=O)*

How the values were obtained:
Calu-6 cell line [1] = assay: Cell associated (bound) fraction of [177Lu]Lu-labeled peptide in Calu-6 cells; assay type: cell-based, Human; conditions: 1 hour, 37° C.
Procedure: (§1) [^177Lu]LuCl3 was received from venders in HCl solution. For every mCi of [^177Lu]LuCl3 added to the reaction vial (1.5 mL Eppendorf vial), ammonium acetate buffer (0.2 M, pH 4.9, 100 μL, containing 1% w/v ascorbic acid and 6% v/v ethanol) and peptide conjugate (1 nmol) was added. The pH of the solution was determined to be approximately 5 by using pH strips. The reaction vial was incubated at 80° C., 700 RPM for 17-20 minutes. A sample from the reaction was analyzed by RP-HPLC using an Agilent Infinity II 1260 HPLC to determine reaction completion and radiochemical purity. HPLC conditions: Waters XBridge BEH C18 Column, 130 Å, 3.5 μm, 4.6 mm×250 mm; mobile phase: Solvent A=water (with 0.1% formic acid), solvent B=acetonitrile (with 0.1% formic acid). Gradients: 25-45% B in 10 minutes, 45-65% B in 12 minutes, 65-90% in 6 minutes at a flow rate of 0.5 mL/minute. Required amounts of the product were formulated in 1% PBSA for cell studies.
(§2) The study was conducted using Calu-6 cell line (Table 8)
(§3) Adherent cell studies: The cells were cultured in appropriate culture media (20 mL) in tissue culture treated T150 flasks at 37° C. and 5% CO2. Adherent cells were detached (60-70% confluent) using 5 mL Versene at 37° C. for 3 minutes. After confirming the viability using countess and count of detached cells using Trypan blue, the cells were centrifuged at 4° C. for 5 minutes (1,000 revolutions per minute). The cell pellet obtained was washed once with PBS and resuspended in 1% PBSA to obtain the desired cell concentration (5 million cells/mL).
Cell associated fraction: Cells were incubated with 300 μL (0.8 μCi) of the incubation buffer (containing radiolabeled peptide [^177Lu]Lu-test peptide) for 1 hour at 37 C (Table 9). Post incubation, the cells were pelleted and washed 2 times using cold PBS+1% BSA. The supernatant and washes were combined and counted together as “unbound fraction” in a gamma counter. The cells were then resuspended in 300 μL of 1% PBS+1% BSA and counted in the gamma counter as cell associated fraction (or bound fraction).
(§4) Calu-6 Cells are Human-Derived, Non-Engineered Lung Cancer Cell that Express B7-H3.

Calu-6 cell line [2] = assay: Net internalization of [177Lu]Lu-labeled peptide in Calu-6 cells; assay type: cell-based, Human; conditions: 1 hour, 37° C., glycine pH 2.5 acid wash
Procedure: as §1, §2, §3
Net internalization: The resuspended cells in 300 μl of 1% PBSA and counted in the gamma counter as “bound fraction” were collected in 1.5 mL Eppendorf tube and pelleted. The pelleted cells were incubated with 300 μl of 50 mM Glycine pH=2.5 for 3 minutes and then pelleted discarding the supernatant. This process was repeated one more time. The pelleted cells were washed with 300 μl of cold 1% PBSA and then resuspended in 300 μl 0.3 M NaOH. This was counted in the gamma counter as “internalized fraction”.
as §4

human 4lg B7-H3 = target: T1, human 4lg B7-H3 (Homo sapiens, UniProt Q5ZPR3); assay: Affinity determination by surface plasmon resonance (SPR) to 4Ig B7-H3; conditions: 4Ig B7-H3
T1 sequence (Q5ZPR3 29-534): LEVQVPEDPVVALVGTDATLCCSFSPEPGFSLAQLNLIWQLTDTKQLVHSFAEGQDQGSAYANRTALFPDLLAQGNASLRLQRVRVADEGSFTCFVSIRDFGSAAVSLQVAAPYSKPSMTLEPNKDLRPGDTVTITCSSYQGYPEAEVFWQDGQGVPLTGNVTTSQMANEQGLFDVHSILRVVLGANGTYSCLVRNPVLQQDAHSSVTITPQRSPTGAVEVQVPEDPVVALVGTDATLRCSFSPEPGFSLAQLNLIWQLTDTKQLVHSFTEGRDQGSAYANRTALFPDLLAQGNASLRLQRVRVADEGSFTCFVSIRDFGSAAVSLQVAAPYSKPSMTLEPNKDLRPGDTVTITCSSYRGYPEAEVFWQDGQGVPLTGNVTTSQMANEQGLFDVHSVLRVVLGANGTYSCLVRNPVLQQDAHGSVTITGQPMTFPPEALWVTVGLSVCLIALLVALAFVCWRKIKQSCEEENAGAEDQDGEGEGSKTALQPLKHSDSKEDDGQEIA

[3] = read-out: SPR KD—37° C., 37° C. flow cell temperature
[4] = read-out: SPR KD—25° C., 25° C. flow cell temperature

Compound	% cell associated fraction (Calu-6 cell line [1])	% net internalization (Calu-6 cell line [2])	Kd (human 4lg B7-H3; [3]) [nM]	Kd (human 4lg B7-H3; SPR KD—25° C., 25° C. flow cell temperature) [nM]	Kd (human 4lg B7-H3; [4]) [nM]	Kd (human 4lg B7-H3; SPR KD—37° C., 37° C. flow cell temperature) [nM]
CC(C)CC[C@H](NS(C)(=O)=O)C(=O)N[C@@H](Cc1ccc(O)cc1)C(=O)N[C@H]1CSSC[C@@H](C(=O)N[C@@H](Cc2c[nH]c3ccc(F)cc23)C(=O)N[C@@H](Cc2ccccc2)C(=O)N[C@H](C(=O)N[C@H](CCCCNC(=O)CN2CCN(CC(=O)O)CCN(CC(=O)O)CCN(CC(=O)O)CC2)C(=O)O)C(C)(C)O)NC(=O)[C@H](Cc2ccc(O)cc2)NC(=O)[C@H](C(C)C)NC(=O)[C@H](CC(=O)O)NC(=O)[C@H](CC2CCOCC2)NC(=O)[C@H](CC2CCNCC2)NC(=O)CNC(=O)[C@H](C(C)(C)C)NC1=O [Cpd #437, MeSO2-hLeu-Y-C-Tbg-G-PipAla-ThpA-D-V-Y-C-5FW-F-hydroxyVal-dLys(DOTA)-COOH] (Ms-[hLeu]YC[Tle]G[Ala(piperidin-4-yl)][Ala(4-THP)]DVYC[Trp(5-F)]F[Val(3-OH)][dK](DOTA)-OH; disulfide 3-11)	B (25<%≤50)	A (%≤25)	< 1	–	–	–
CC(=O)N[C@@H](CCC(C)C)C(=O)N[C@@H](Cc1ccc(O)cc1)C(=O)N[C@H]1CSSC[C@@H](C(=O)N[C@@H](Cc2c[nH]c3ccc(F)cc23)C(=O)N[C@H](C(=O)N[C@H](C(=O)N[C@H](CCC(=O)O)C(N)=O)C(C)(C)O)[C@@H](C)c2ccccc2)NC(=O)[C@H](Cc2ccc(O)cc2)NC(=O)[C@H](C(C)C)NC(=O)[C@H](CC(=O)O)NC(=O)[C@H](CC2CCN(C(=O)CCOCCOCCOCCOCCNC(=O)CN3CCN(CC(=O)O)CCN(CC(=O)O)CCN(CC(=O)O)CC3)CC2)NC(=O)[C@H](CC2CCNCC2)NC(=O)CNC(=O)[C@H](C(C)(C)C)NC1=O [compound 495, Ac-hLeu-Y-C-Tbg-G-PipAla-Pip(PEG4-DOTA)Ala-D-V-Y-C-5FW-[(2S, 3S)beta-Me-Phe]-hydroxyVal-dGlu-CONH2] (Ac-[hLeu]YC[Tle]G[Ala(piperidin-4-yl)][Ala(piperidin-4-yl)]([PEG4-DOTA])DVYC[Trp(5-F)][X1][Val(3-OH)][dE]-NH2; disulfide 3-11)	C (%>50)	A (%≤25)	< 1	–	–	–
CC(=O)N[C@@H](CCC(C)C)C(=O)N[C@@H](Cc1ccc(O)cc1)C(=O)N[C@H]1CSSC[C@@H](C(=O)N[C@@H](Cc2cccc3ccccc23)C(=O)N[C@@H](Cc2ccccc2)C(=O)N2CCC[C@H]2C(N)=O)NC(=O)[C@H](Cc2ccc(O)cc2)NC(=O)[C@H](C(C)C)NC(=O)[C@H](CC(=O)O)NC(=O)[C@H](Cc2ccncc2)NC(=O)[C@H](CCCCNC(=O)CC[C@H](NC(=O)CN2CCN(CC(=O)O)CCN(CC(=O)O)CCN(CC(=O)O)CC2)C(=O)O)NC(=O)CNC(=O)[C@H](C(C)(C)C)NC1=O [compound 252, Ac-hLeu-Y-C-Tbg-G-Lys(gE-DOTA)-4PyA-D-V-Y-C-1Nal-F-Pro-CONH2] (Ac-[hLeu]YC[Tle]GK([γGlu-DOTA])[4Pal]DVYC[1Nal]FP-NH2; disulfide 3-11)	B (25<%≤50)	A (%≤25)	–	1 to 10	–	–
CC(=O)N[C@@H](CCC(C)C)C(=O)N[C@@H](Cc1ccc(O)cc1)C(=O)N[C@H]1CSSC[C@@H](C(=O)N[C@@H](Cc2c[nH]c3ccc(F)cc23)C(=O)N[C@@H](Cc2ccccc2)C(=O)N[C@H](C(=O)N[C@H](CCCCNC(=O)CCOCCOCCOCCOCCNC(=O)CN2CCN(CC(=O)O)CCN(CC(=O)O)CCN(CC(=O)O)CC2)C(=O)O)C(C)(C)O)NC(=O)[C@H](Cc2ccc(O)cc2)NC(=O)[C@H](C(C)C)NC(=O)[C@H](CC(=O)O)NC(=O)[C@H](CC2CCOCC2)NC(=O)[C@H](CC2CCNCC2)NC(=O)CNC(=O)[C@H](C(C)(C)C)NC1=O [compound 465, Ac-hLeu-Y-C-Tbg-G-PipAla-ThpA-D-V-Y-C-5FW-F-hydroxyVal-dLys(PEG4-DOTA)-COOH] (Ac-[hLeu]YC[Tle]G[Ala(piperidin-4-yl)][Ala(4-THP)]DVYC[Trp(5-F)]F[Val(3-OH)][dK]([PEG4-DOTA])-OH; disulfide 3-11)	B (25<%≤50)	A (%≤25)	< 1	–	–	–
CC(=O)N[C@@H](CCC(C)C)C(=O)N[C@@H](Cc1ccc(O)cc1)C(=O)N[C@H]1CSSC[C@@H](C(=O)N[C@@H](Cc2c[nH]c3ccc(F)cc23)C(=O)N[C@@H](Cc2ccccc2)C(=O)N[C@H](C(=O)N[C@H](CCCCNC(=O)CN2CCN(CC(=O)O)CCN(CC(=O)O)CCN(CC(=O)O)CC2)C(N)=O)[C@@H](C)O)NC(=O)[C@H](Cc2ccc(O)cc2)NC(=O)[C@H](C2CCCCC2)NC(=O)[C@H](CC(=O)O)NC(=O)[C@H](Cc2ccc(O)cc2)NC(=O)[C@H](CCCCN)NC(=O)CNC(=O)[C@H](C(C)C)NC1=O [compound 215, Ac-hLeu-Y-C-V-G-K-Y-D-ChG-Y-C-5FW-F-Thr-dLys(DOTA)-CONH2] (Ac-[hLeu]YCVGKYD[Chg]YC[Trp(5-F)]FT[dK](DOTA)-NH2; disulfide 3-11)	C (%>50)	A (%≤25)	–	–	< 1	–
CC(=O)N[C@@H](CCC(C)C)C(=O)N[C@@H](Cc1ccc(O)cc1)C(=O)N[C@H]1CSSC[C@@H](C(=O)N[C@@H](Cc2c[nH]c3ccc(F)cc23)C(=O)N[C@@H](Cc2ccccc2)C(=O)N[C@H](C(=O)N[C@H](CCCCNC(=O)CN2CCN(CC(=O)O)CCN(CC(=O)O)CCN(CC(=O)O)CC2)C(N)=O)C(C)(C)O)NC(=O)[C@H](Cc2ccc(O)cc2)NC(=O)[C@H](C(C)C)NC(=O)[C@H](CC(=O)O)NC(=O)[C@H](CC2CCOCC2)NC(=O)[C@H](CCCCN)NC(=O)CNC(=O)[C@H](C(C)(C)C)NC1=O [compound 366, Ac-hLeu-Y-C-Tbg-G-K-ThpA-D-V-Y-C-5FW-F-hydroxyVal-dLys(DOTA)-CONH2] (Ac-[hLeu]YC[Tle]GK[Ala(4-THP)]DVYC[Trp(5-F)]F[Val(3-OH)][dK](DOTA)-NH2; disulfide 3-11)	B (25<%≤50)	A (%≤25)	–	–	–	< 1
CC(=O)N[C@@H](CCC(C)C)C(=O)N[C@@H](Cc1ccc(O)cc1)C(=O)N[C@H]1CSSC[C@@H](C(=O)N[C@@H](Cc2c[nH]c3ccc(F)cc23)C(=O)N[C@@H](Cc2ccccc2)C(=O)N2CCC[C@H]2C(=O)N[C@H](CCCCNC(=O)CN2CCN(CC(=O)O)CCN(CC(=O)O)CCN(CC(=O)O)CC2)C(=O)O)NC(=O)[C@H](Cc2ccc(O)cc2)NC(=O)[C@H](C(C)C)NC(=O)[C@H](CC(=O)O)NC(=O)[C@H](CC2CCOCC2)NC(=O)[C@H](CCCCN)NC(=O)CNC(=O)[C@H](C(C)C)NC1=O [compound 288, Ac-hLeu-Y-C-V-G-K-ThpA-D-V-Y-C-5FW-F-Pro-dLys(DOTA)-COOH] (Ac-[hLeu]YCVGK[Ala(4-THP)]DVYC[Trp(5-F)]FP[dK](DOTA)-OH; disulfide 3-11)	B (25<%≤50)	A (%≤25)	–	–	< 1	–
